Data on one molecule can be found in US11022604B2, “Dock derived compound against laminin receptor (37 LR) and uses thereof” (Purdue Research Foundation, priority 2017, dated 2021).

Assay [1] deals with SH-SY5Y neuroblastoma cells. The assay can be described thus: Cell viability screen (CCK-8), SH-SY5Y cells. Type of assay: cell-based. The note with it: Homo sapiens, CCK-8, 96 hours, read-out: IC50, inhibition of cell viability. On the procedure: FIGS. 2A-2H. Dose response curves. Does response curves for cell lines treated with 6, 10.5, 18.6, 32.4, 57.5 and 100 μM of compound (log) for 96 hours using % cell viability derived from CCK-8 absorbance readings at 450 nm (n=3, mean±SEM). A DMSO equivalent control (n=2±SEM) was also included for each cell line tested: Ea.hy.926 endothelial cells (Endo), LNCaP androgen dependent metastatic prostate cancer cells, TC2-Ras mouse prostate cancer cells, PC-3 androgen independent metastatic prostate cancer cells, and SH-SY5Y neruoblastoma cells. […]
Cell Viability Screen. […] Cell viability was measured by using the cell counting kit-8 (CCK-8, Dojindo). […] CCK-8 absorbance was measured at 450 nm using a GloMax Multimode Reader (Promega). Readings were performed the day after seeding to normalize for variations in cell seeding and after 96 hours of compound treatment. After each reading, CCK-8 media was removed and replaced with media containing compound as described previously. […] As described previously, an initial baseline CCK-8 reading was performed at 24 hours post seeding to correct for variations in seeding density. First, 450 nm values for each well were subtracted from media only readings to correct for baseline absorbance. Then, the 96 hour readings were normalized to their respective 24 hour readings to control for seeding variation. […]

The test system of assay [2] is PC3 prostate cancer cell line. Put plainly: Cell Titer Glo cell viability assay. The assay is classed as cell-based. The note with it: Homo sapiens, PC-3, PC3 cells. An excerpt: In this series of cell viability experiments, we used the highly sensitive Cell Titer Glo reagents from Promega in PC3 prostate cancer cell line. We compared the parental compound C3 effect on reducing cell viability with the best derivative compound, DBG-02-09.
In general terms: ATP-based viability assays read luminescence as a measure of living cells.

In general, IC50 refers to the concentration that gives 50% inhibition.

For `O=C(c1cc(F)cc2c1OCOC2)N1CCN(C2c3ccccc3-c3ccccc32)CC1` [Compound C3, [4-(9h-fluoren-9-yl)piperazino](6-fluoro-4h-1,3-benzodioxin-8-yl)methanone], the results for the concentration for half-maximal inhibition (IC50) in assay [1] and in assay [2] were 18.6 µM and 16.7 ± 7.6 µM, respectively.
